Measured values reported in BindingDB's records for doi:10.1124/jpet.103.062398 (Institut De Recherches Servier, 2004).
Several values for one entry are separate records, joined by “and”; a condition that tells them apart may be missing. Identical values can stand only once.

Assays:
[1] = target: 5-hydroxytryptamine receptor 6 (Homo sapiens, UniProt P50406)
[2] = target: 5-hydroxytryptamine receptor 7 (Homo sapiens, UniProt P34969)
[3] = target: D(2) dopamine receptor (Rattus norvegicus, UniProt P61169)
[4] = target: 5-hydroxytryptamine receptor 3A (Mus musculus, UniProt P23979)
[5] = target: Alpha-1A adrenergic receptor (Rattus norvegicus, UniProt P43140)
[6] = target: 5-hydroxytryptamine receptor 5A (Homo sapiens, UniProt P47898)
[7] = target: 5-hydroxytryptamine receptor 4 (Cavia porcellus, UniProt O70528)
[8] = target: D(3) dopamine receptor (Homo sapiens, UniProt P35462)
[9] = target: D(4) dopamine receptor (Homo sapiens, UniProt P21917)
[10] = target: D(2) dopamine receptor (Homo sapiens, UniProt P14416)
[11] = target: 5-hydroxytryptamine receptor 1A (Homo sapiens, UniProt P08908)
[12] = target: 5-hydroxytryptamine receptor 2A (Homo sapiens, UniProt P28223)
[13] = target: T1, Alpha-2A adrenergic receptor [16-465] (Rattus norvegicus, UniProt P22909)
T1 construct: 16-465

[14] = target: 5-hydroxytryptamine receptor 1B (Homo sapiens, UniProt P28222)
[15] = target: 5-hydroxytryptamine receptor 1D (Homo sapiens, UniProt P28221)
[16] = target: 5-hydroxytryptamine receptor 2B (Homo sapiens, UniProt P41595)
[17] = target: Alpha-1A adrenergic receptor (Homo sapiens, UniProt P35348)
[18] = target: Alpha-2B adrenergic receptor (Homo sapiens, UniProt P18089)
[19] = target: Alpha-2C adrenergic receptor (Homo sapiens, UniProt P18825)
[20] = target: Alpha-1B adrenergic receptor (Homo sapiens, UniProt P35368)
[21] = target: Alpha-1D adrenergic receptor (Homo sapiens, UniProt P25100)
[22] = target: 5-hydroxytryptamine receptor 2C (Homo sapiens, UniProt P28335)
[23] = target: Alpha-2A adrenergic receptor (Homo sapiens, UniProt P08913)

D(3) dopamine receptor, sequence (P35462 as listed by the source): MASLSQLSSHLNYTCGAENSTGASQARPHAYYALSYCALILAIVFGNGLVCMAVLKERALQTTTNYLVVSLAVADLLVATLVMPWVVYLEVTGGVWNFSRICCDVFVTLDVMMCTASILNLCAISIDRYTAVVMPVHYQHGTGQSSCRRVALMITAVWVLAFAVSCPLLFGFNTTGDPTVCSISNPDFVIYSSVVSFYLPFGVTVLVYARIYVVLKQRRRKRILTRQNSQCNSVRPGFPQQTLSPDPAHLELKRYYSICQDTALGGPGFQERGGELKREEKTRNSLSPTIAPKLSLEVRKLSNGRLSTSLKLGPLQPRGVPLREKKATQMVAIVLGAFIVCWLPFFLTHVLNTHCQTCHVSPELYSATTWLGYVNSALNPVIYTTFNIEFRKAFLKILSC
D(2) dopamine receptor (Homo sapiens, UniProt P14416), sequence (P14416 whole entry): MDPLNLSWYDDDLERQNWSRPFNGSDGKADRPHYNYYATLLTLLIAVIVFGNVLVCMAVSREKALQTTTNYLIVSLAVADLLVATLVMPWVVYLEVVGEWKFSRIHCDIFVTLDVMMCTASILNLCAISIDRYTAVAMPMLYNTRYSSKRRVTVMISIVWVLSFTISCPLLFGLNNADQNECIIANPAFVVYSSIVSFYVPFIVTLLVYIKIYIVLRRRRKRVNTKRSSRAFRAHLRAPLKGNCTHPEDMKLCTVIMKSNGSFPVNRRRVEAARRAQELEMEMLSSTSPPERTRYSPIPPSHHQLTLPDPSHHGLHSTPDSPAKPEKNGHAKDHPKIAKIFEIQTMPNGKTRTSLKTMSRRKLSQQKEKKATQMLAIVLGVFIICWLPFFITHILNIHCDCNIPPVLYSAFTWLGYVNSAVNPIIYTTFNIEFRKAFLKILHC
5-hydroxytryptamine receptor 5A, sequence (P47898 whole entry): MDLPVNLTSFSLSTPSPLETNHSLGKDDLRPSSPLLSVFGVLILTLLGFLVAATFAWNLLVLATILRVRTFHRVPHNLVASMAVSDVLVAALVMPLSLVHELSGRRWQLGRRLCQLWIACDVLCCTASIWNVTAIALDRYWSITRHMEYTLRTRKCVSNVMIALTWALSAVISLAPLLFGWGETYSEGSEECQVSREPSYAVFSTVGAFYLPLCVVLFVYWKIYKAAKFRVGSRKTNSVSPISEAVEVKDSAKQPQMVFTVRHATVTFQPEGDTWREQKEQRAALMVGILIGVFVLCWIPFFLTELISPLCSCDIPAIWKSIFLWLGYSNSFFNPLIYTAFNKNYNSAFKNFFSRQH
5-hydroxytryptamine receptor 7, sequence (P34969 whole entry): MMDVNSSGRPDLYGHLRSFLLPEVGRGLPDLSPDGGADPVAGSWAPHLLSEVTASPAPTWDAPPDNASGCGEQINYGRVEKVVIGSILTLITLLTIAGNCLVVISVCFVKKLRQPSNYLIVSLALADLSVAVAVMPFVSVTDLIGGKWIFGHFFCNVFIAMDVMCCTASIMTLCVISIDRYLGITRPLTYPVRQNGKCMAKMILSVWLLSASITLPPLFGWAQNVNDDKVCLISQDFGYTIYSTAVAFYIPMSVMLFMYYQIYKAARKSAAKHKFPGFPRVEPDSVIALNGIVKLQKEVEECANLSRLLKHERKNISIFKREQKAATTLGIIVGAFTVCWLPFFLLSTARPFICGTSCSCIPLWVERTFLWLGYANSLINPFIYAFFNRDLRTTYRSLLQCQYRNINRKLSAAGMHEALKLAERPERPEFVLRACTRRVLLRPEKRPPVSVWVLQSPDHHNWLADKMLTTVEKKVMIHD
5-hydroxytryptamine receptor 4, sequence (O70528 whole entry): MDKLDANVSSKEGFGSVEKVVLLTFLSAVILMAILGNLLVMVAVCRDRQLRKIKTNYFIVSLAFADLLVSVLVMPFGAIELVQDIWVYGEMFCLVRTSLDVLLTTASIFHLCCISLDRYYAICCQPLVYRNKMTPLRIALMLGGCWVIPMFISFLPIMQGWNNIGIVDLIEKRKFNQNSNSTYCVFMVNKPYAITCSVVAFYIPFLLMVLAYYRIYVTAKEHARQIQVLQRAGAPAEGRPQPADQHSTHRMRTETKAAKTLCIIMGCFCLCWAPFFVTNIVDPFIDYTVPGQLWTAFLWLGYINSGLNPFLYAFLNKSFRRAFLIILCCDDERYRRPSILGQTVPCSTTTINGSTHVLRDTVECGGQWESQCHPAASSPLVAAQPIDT
5-hydroxytryptamine receptor 3A, sequence (P23979 as listed by the source): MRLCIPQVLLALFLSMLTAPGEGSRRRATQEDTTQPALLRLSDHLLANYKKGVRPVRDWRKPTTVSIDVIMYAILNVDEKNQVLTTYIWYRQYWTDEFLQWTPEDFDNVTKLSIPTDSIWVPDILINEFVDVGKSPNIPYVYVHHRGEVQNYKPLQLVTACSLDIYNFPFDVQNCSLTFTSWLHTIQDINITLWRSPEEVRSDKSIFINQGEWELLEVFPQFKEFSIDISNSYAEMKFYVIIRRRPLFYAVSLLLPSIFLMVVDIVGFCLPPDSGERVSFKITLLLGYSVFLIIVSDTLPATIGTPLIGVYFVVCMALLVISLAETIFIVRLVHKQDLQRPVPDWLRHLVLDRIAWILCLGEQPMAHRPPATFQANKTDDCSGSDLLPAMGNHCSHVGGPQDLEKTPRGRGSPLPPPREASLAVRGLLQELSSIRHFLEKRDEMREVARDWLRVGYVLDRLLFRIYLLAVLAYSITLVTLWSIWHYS
D(2) dopamine receptor (Rattus norvegicus, UniProt P61169), sequence (P61169 whole entry): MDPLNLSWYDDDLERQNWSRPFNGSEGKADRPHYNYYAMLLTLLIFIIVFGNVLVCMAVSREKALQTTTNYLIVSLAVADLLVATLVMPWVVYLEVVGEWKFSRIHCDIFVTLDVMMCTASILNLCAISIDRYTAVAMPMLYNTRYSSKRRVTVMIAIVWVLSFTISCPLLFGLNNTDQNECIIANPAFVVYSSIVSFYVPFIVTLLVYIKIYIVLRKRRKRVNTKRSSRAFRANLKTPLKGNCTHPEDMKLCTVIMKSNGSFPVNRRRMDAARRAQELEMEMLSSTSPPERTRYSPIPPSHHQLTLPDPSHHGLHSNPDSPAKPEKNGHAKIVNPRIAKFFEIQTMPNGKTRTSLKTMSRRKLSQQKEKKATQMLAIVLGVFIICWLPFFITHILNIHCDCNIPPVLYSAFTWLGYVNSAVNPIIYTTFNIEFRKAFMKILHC
5-hydroxytryptamine receptor 6, sequence (P50406 whole entry): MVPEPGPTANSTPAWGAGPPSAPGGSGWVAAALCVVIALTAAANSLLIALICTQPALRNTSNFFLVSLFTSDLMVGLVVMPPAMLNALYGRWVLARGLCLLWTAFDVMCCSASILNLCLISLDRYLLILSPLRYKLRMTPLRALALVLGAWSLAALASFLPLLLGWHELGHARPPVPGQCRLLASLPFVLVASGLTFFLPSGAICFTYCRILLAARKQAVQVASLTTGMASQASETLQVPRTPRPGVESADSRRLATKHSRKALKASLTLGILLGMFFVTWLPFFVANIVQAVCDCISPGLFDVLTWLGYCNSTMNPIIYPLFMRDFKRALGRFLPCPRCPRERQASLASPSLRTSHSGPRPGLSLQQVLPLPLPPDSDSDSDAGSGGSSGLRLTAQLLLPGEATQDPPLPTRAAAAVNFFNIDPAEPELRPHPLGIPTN
Alpha-1A adrenergic receptor (Rattus norvegicus, UniProt P43140), sequence (P43140 whole entry): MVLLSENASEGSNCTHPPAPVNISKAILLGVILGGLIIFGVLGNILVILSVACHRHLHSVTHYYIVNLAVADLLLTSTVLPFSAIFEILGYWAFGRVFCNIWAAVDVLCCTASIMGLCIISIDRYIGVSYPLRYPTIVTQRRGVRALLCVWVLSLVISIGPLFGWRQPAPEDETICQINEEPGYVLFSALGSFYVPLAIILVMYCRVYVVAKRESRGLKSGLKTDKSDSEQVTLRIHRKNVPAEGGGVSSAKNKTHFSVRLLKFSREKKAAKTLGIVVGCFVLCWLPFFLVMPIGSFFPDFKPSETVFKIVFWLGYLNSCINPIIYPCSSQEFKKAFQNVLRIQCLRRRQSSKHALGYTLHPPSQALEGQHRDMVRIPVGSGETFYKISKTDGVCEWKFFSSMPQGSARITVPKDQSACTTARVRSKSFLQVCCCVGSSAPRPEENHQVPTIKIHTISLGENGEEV
5-hydroxytryptamine receptor 1B, sequence (P28222 whole entry): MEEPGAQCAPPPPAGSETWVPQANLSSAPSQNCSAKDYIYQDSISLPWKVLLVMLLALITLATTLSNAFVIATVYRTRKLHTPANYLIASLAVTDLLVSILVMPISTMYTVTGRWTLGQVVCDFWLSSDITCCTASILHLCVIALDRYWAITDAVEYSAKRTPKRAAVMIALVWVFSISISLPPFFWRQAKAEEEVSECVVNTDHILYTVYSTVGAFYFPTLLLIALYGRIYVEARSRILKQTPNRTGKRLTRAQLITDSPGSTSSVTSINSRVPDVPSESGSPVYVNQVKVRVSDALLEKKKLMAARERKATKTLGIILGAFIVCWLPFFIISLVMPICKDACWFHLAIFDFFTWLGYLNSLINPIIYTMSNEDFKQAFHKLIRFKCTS
5-hydroxytryptamine receptor 2B, sequence (P41595 whole entry): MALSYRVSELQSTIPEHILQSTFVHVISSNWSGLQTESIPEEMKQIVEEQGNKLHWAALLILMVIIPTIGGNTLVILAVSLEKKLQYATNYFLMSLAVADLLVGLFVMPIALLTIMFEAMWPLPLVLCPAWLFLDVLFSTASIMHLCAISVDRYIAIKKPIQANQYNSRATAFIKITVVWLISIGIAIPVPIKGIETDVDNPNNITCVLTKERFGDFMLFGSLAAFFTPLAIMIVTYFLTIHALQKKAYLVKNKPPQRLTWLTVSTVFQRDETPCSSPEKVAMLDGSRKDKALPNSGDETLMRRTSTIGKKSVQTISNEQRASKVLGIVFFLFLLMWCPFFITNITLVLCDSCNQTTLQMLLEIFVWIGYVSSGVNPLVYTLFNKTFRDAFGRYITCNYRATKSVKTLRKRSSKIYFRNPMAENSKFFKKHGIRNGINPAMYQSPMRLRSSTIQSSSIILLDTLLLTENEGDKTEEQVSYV

Row | Structure (SMILES) | Ki [1] [µM] | Ki [2] [nM] | Ki [3] [nM] | Ki [4] [µM] | Ki [5] [µM] | Ki [6] [µM] | Ki [7] [µM] | Ki [8] [nM] | Ki [10] | further results
1 | CCCN(CCC)CCc1cccc2c1CC(=O)N2 | > 10 | 1510 | 1150 | > 10 | > 10 | > 10 | > 10 | – | – | –
2 | CCCN1CCO[C@@H]2c3cc(C(N)=O)ccc3CC[C@H]21 [S32504 (+)] | – | – | 457 | – | – | – | – | 8.91 | 513 nM and 355 nM | Ki [9]: 5.13 µM
3 | CCCN1CCOC2c3cc(C(N)=O)ccc3CCC21 (stereo not drawn) [S32504] | > 10 | 661 | – | > 10 | > 10 | > 10 | > 10 | 8.91 | – | Ki [11]: 257 nM; Ki [12]: 5.25 µM; Ki [13]: > 10 µM; Ki [14]: > 10 µM; Ki [15]: 263 nM; Ki [16]: 4.57 µM; Ki [17]: > 10 µM; Ki [18]: 1660 nM; Ki [19]: > 10 µM; Ki [20]: > 10 µM; Ki [21]: > 10 µM; Ki [22]: > 10 µM; Ki [23]: 8.13 µM
4 | N#Cc1ccc2c(c1)[C@H]1CN(CCCCNC(=O)c3ccc(-c4ccccc4)cc3)C[C@@H]1CO2 [S33084] | – | – | – | – | – | – | – | 0.26 | 29.5 nM | –
